Test results from ChEMBL document CHEMBL4393720, “Design, synthesis and biological evaluation of bromophenol-thiazolylhydrazone hybrids inhibiting the interaction of translation initiation factors eIF4E/eIF4G as multifunctional agents for cancer treatment” (Eur J Med Chem, 2019).
The source made the active and inactive calls. The calls are words filed in the database; no cut-off is given here.

Legend:
Caco-2 = experiment: Antiproliferative activity against human Caco2 cells assessed as inhibition of cell growth incubated for 48 hrs by MTT assay; type: functional, cell-based; conditions: Caco-2, 48 h
U-87 MG = experiment: Antiproliferative activity against human U87MG cells assessed as inhibition of cell growth incubated for 48 hrs by MTT assay; type: functional, cell-based, U-87MG ATCC
[1] = target: Eukaryotic translation initiation factor 4E (Homo sapiens) (UniProt P06730); experiment: Inhibition of eIF4E phosphorylation in human A549 cells incubated for 48 hrs by immunofluorescence method; type: cell-based
Eukaryotic translation initiation factor 4E (Homo sapiens), sequence (P06730 whole entry): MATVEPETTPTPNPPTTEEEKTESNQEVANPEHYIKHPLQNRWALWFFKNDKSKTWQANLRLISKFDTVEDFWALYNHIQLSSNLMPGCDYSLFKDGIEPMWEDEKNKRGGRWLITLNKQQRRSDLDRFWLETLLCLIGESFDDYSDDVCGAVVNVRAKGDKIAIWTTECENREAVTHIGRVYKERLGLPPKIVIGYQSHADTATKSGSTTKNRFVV

[2] = target: Eukaryotic translation initiation factor 4E (Homo sapiens) (UniProt P06730); experiment: Inhibition of eIF4E phosphorylation in human A549 cells assessed as decrease in cyclin D1 level at 1 to 5 uM incubated for 48 hrs by western blot analysis; type: cell-based
[3] = Inhibition of PI3K/AKT/mTOR in human A549 cells assessed as decrease in 4EBP1 phosphorylation at 1 to 5 uM incubated for 48 hrs by western blot analysis; type: cell-based
A549 [4] = experiment: Induction of mitochondrial membrane potential loss in human A549 cells at 1 to 5 uM incubated for 48 hrs by JC-1 staining based flow cytometer analysis; type: functional, cell-based
[5] = Inhibition of PI3K/Akt/mTOR signalling pathway in human A549 cells assessed as reduction in PI3K phosphorylation at 1 to 5 uM incubated for 48 hrs by Western blot analysis; type: cell-based
A549 [6] = experiment: Induction of autophagy in human A549 cells assessed as autophagic bodies formation at 2.5 uM incubated for 48 hrs by transmission electron microscopy; type: functional, cell-based
A549 [7] = experiment: Induction of autophagy in human A549 cells assessed as change in LC3 expression at 1 to 5 uM incubated for 48 hrs by Western blot analysis; type: functional, cell-based
A549 [8] = experiment: Induction of autophagy in human A549 cells assessed as change in ULK1 expression at 1 to 5 uM incubated for 48 hrs by Western blot analysis; type: functional, cell-based
A549 [9] = experiment: Induction of apoptosis in human A549 cells assessed as increase in Bax level at 1 to 5 uM incubated for 48 hrs by Western blot analysis; type: functional, cell-based
A549 [10] = experiment: Induction of apoptosis in human A549 cells assessed as activation of caspase 3 at 1 to 5 uM incubated for 48 hrs by Western blot analysis; type: functional, cell-based
A549 [11] = experiment: Induction of apoptosis in human A549 cells at 2.5 uM incubated for 48 hrs in presence of pan caspase inhibitor, Z-VAD-FMK by annexin-V and propidium iodide staining based flow cytometric analysis; type: functional, cell-based
A549 [12] = experiment: Inhibition of colony formation in human A549 cells incubated for 10 days by crystal violet staining based assay; type: functional, cell-based
A549 [13] = experiment: Antitumor activity against human A549 cells xenografted in athymic nude mouse assessed as necrosis of tumor cells and loosely packed cells at 25 to 50 mg/kg, ip administered once daily for 21 days by hematoxylin and eosin staining based microscopic analysis; type: functional, organism-based
[14] = Acute toxicity in SPF Kunming mouse assessed as body weight at 2000 mg/kg, po administered as single dose measured at day 7 (reference value: 30.2g); type: organism-based; conditions: in vivo
[15] = Acute toxicity in SPF Kunming mouse assessed as body weight at 2000 mg/kg, po administered as single dose measured at day 14 (reference value: 34.7g); type: organism-based; conditions: in vivo
[16] = Subacute toxicity in SPF Kunming mouse assessed as body weight at 2000 mg/kg, po administered once a day for 7 days (reference value: 28.4g); type: organism-based; conditions: in vivo, 168 h
[17] = Subacute toxicity in SPF Kunming mouse assessed as body weight at 2000 mg/kg, po administered once a day for 14 days (reference value: 32g); type: organism-based; conditions: in vivo, 336 h
[18] = Toxicity in athymic nude mouse xenografted with human A549 cells assessed as effect on kidney morphological changes at 25 to 50 mg/kg, ip administered once daily for 21 days by H and E staining based assay; type: organism-based; conditions: in vivo, 504 h
[19] = Toxicity in athymic nude mouse xenografted with human A549 cells assessed as effect on lung morphological changes at 25 to 50 mg/kg, ip administered once daily for 21 days by H and E staining based assay; type: organism-based; conditions: in vivo, 504 h
[20] = Volume of distribution in Sprague-Dawley rat at 2 mg/kg, iv measured up to 24 hrs by LC/MS-MS analysis; type: ADME, organism-based; conditions: in vivo
[21] = Tmax in female Sprague-Dawley rat at 2 mg/kg, iv measured up to 24 hrs by LC/MS-MS analysis; type: ADME, organism-based; conditions: in vivo
[22] = AUC (0 to 24 hrs) in male Sprague-Dawley rat at 2 mg/kg, iv measured up to 24 hrs by LC/MS-MS analysis; type: ADME, organism-based; set-up: dose 2 mg/kg, time < 24 hr, route intravenous; conditions: in vivo
[23] = MRT in male Sprague-Dawley rat at 2 mg/kg, iv measured up to 24 hrs by LC/MS-MS analysis; type: ADME, organism-based; conditions: in vivo
[24] = Total plasma clearance in male Sprague-Dawley rat at 2 mg/kg, iv measured up to 24 hrs by LC/MS-MS analysis; type: ADME, organism-based
[25] = Half life in female Sprague-Dawley rat at 2 mg/kg, iv measured up to 24 hrs by LC/MS-MS analysis; type: ADME, organism-based; conditions: in vivo
[26] = MRT in female Sprague-Dawley rat at 2 mg/kg, iv measured up to 24 hrs by LC/MS-MS analysis; type: ADME, organism-based; conditions: in vivo
[27] = Total plasma clearance in female Sprague-Dawley rat at 2 mg/kg, iv measured up to 24 hrs by LC/MS-MS analysis; type: ADME, organism-based
[28] = Volume of distribution in steady state in female Sprague-Dawley rat at 2 mg/kg, iv measured up to 24 hrs by LC/MS-MS analysis; type: ADME, organism-based; conditions: in vivo, read-out: Vdss
[29] = Cmax in male Sprague-Dawley rat at 10 mg/kg, po measured up to 24 hrs by LC/MS-MS analysis; type: ADME, organism-based; set-up: dose 10 mg/kg, route oral; conditions: in vivo
[30] = MRT in male Sprague-Dawley rat at 10 mg/kg, po measured up to 24 hrs by LC/MS-MS analysis; type: ADME, organism-based; conditions: in vivo
[31] = Cmax in female Sprague-Dawley rat at 10 mg/kg, po measured up to 24 hrs by LC/MS-MS analysis; type: ADME, organism-based; set-up: dose 10 mg/kg, route oral; conditions: in vivo
[32] = AUC (0 to 24 hrs) in female Sprague-Dawley rat at 10 mg/kg, po measured up to 24 hrs by LC/MS-MS analysis; type: ADME, organism-based; set-up: time < 24 hr, dose 10 mg/kg, route oral; conditions: in vivo
[33] = Half life in female Sprague-Dawley rat at 10 mg/kg, po measured up to 24 hrs by LC/MS-MS analysis; type: ADME, organism-based; conditions: in vivo
[34] = Inhibition of PI3K/Akt/mTOR in human A549 cells assessed as increase in eIF4E/4EBP1 interaction incubated for 48 hrs by m7GTP pull down assay; type: cell-based
A549 [35] = experiment: Induction of ROS generation in human A549 cells at 1 to 5 uM incubated for 48 hrs by DCFH-DA staining based FACS analysis; type: functional, cell-based
A549 [36] = experiment: In vivo inhibition of eIF4E in human A549 cells xenografted in athymic nude mouse assessed as decrease in phosphorylation of eIF4E at 25 to 50 mg/kg, ip administered once daily for 21 days by immunocytochemistry; type: functional, organism-based
[37] = Subacute toxicity in SPF Kunming mouse assessed as heart morphological changes at 2000 mg/kg, po administered once a day for 14 days by H and E staining based microscopic analysis; type: organism-based; conditions: in vivo, 336 h

**Q.** For `Fc1ccc(/C=N/Nc2nc(-c3ccc(C(F)(F)F)cc3)cs2)cc1F`, which IC50 (Caco-2) is on record?
**A.** 14.6 µM

**Q.** And the IC50 (U-87 MG)?
**A.** 29.9 µM

**Q.** And the inhibition [1]?
**A.** Active

**Q.** And the inhibition [2]?
**A.** Active

**Q.** What about the inhibition [3] of the same compound?
**A.** Active

**Q.** And the Activity (A549 [4])?
**A.** Active

**Q.** And the inhibition [5]?
**A.** Active

**Q.** What about the Activity (A549 [6]) of the same compound?
**A.** Active

**Q.** What about the Activity (A549 [7]) of the same compound?
**A.** Active

**Q.** What about the Activity (A549 [8]) of the same compound?
**A.** Active

**Q.** And the Activity (A549 [9])?
**A.** Active

**Q.** And the Activity (A549 [10])?
**A.** Active

**Q.** And the Activity (A549 [11])?
**A.** inactive

**Q.** And the inhibition (A549 [12])?
**A.** Dose-dependent effect

**Q.** What about the Activity (A549 [13]) of the same compound?
**A.** Active

**Q.** What about the Activity [14] of the same compound?
**A.** 29.9 g

**Q.** And the Activity [15]?
**A.** 35 g

**Q.** And the Activity [16]?
**A.** 28 g

**Q.** And the Activity [17]?
**A.** 30.7 g

**Q.** And the Activity [18]?
**A.** Non-Toxic

**Q.** What about the Activity [19] of the same compound?
**A.** Non-Toxic

**Q.** What about the Vd [20] of the same compound?
**A.** 0.67 L/kg

**Q.** And the Tmax [21]?
**A.** 2 h

**Q.** And the AUC(0-t) at 24 h [22]?
**A.** 155 µM·h

**Q.** What about the MRT [23] of the same compound?
**A.** 4.42 h

**Q.** And the clearance [24]?
**A.** 0.5 mL/min/kg

**Q.** And the half-life [25]?
**A.** 3.25 h

**Q.** What about the MRT [26] of the same compound?
**A.** 5.09 h

**Q.** What about the clearance [27] of the same compound?
**A.** 0.667 mL/min/kg

**Q.** And the Vd [28]?
**A.** 0.19 L/kg

**Q.** And the Cmax [29]?
**A.** 650 nM

**Q.** And the MRT [30]?
**A.** 1.83 h

**Q.** And the Cmax [31]?
**A.** 960 nM

**Q.** And the AUC(0-t) at 24 h [32]?
**A.** 8.25 µM·h

**Q.** And the half-life [33]?
**A.** 1.12 h

**Q.** What about the Activity [34] of the same compound?
**A.** Active

**Q.** What about the Activity (A549 [35]) of the same compound?
**A.** Active

**Q.** What about the inhibition (A549 [36]) of the same compound?
**A.** Active

**Q.** And the Activity [37]?
**A.** Non-Toxic
